The numbers were not newly measured in patent US20220098283A1, “ACE2- and TMPRSS2-Targeted Compositions and Methods for Treating COVID-19” (priority 2020, published 2022), which cites them from elsewhere.

Read-outs that look alike come from different tables or passages of the source.

This data set deals with hACE2 (Homo sapiens, UniProt Q9BYF1). The note with it: 100 μM angiotensin II, 37° C., 2 hours.
Chain of hACE2 (Q9BYF1 18-805): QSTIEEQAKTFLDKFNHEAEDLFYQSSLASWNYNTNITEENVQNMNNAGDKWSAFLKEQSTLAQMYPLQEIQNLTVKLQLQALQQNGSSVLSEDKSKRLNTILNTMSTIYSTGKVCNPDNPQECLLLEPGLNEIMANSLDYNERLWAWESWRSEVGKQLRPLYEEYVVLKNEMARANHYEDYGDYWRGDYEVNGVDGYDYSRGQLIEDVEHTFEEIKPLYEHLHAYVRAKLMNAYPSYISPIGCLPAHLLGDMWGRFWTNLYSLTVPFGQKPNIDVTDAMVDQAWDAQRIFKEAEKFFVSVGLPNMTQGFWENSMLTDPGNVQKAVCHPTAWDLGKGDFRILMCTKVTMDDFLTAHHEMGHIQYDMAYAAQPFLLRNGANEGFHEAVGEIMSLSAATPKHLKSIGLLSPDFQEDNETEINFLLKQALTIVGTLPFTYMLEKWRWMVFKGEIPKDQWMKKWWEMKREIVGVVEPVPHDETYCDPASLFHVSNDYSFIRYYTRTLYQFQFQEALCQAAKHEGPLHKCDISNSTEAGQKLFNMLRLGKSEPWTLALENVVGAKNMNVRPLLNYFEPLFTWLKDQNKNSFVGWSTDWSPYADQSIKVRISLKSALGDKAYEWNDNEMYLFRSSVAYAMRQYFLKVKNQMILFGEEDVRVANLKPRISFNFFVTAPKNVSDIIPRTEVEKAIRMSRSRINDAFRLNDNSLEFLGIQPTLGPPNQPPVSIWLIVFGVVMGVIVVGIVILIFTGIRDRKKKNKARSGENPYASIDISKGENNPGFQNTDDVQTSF

As for `O=C(O)CN(CCN(CC(=O)O)CC(=O)O)CC(=O)O` [EDTA], the “inhibition of hACE2 activity (angiotensin II cleavage)” value (inhibitor 10 mM) is reported as “inhibits hACE2 activity”. For the compound `O=C(O)CC(Cc1ccccc1)C(=O)O` (centres unmarked) [benzyl succinate], the “inhibition of hACE2 activity (angiotensin II cleavage)” value (inhibitor 100 μM) was “none of lisinopril, captopril, enalaprilat, and benzyl succinate (a carboxypeptidase A inhibitor) inhibits hACE2 activity”.
